In brackets after ≈: the same amount, converted by molar mass. Blank lines part the entries; values can stand above or below the compound they belong to.
How the values were obtained:
Type in all cases: physicochemical
[1] = Approximate solubility by incremental addition of solvent; details: for solubility: thermodynamic from solid
Method: Solubility: Approximate solubilities were determined by incremental addition of solvent to about 10 mg the compound. If the substance was not dissolved by addition of a total of at least 10 ml solvent, the solubility is indicated as <1 mg/ml. Due to the experimental error inherent in this method, the solubility values are intended to be regarded as rough estimates and are to be used solely for the design of crystallization experiments.
Approximate solubilities were determined for amorphous Compound (I) at room temperature. These values were obtained by addition of small aliquots of solvent to small amounts of solid to achieve dissolution by stirring or agitation for a short period of time. […] Ratios for solvent mixtures correspond to volume ratios.
Initially the tests were carried out with the amorphous form Compound (I) and later on, after stable crystalline Form D (Example 7 below) was discovered, some of the tests were repeated with the crystalline form. […] Antisolvents are water, heptane, and TBME. […] Based on available data and further experiments diisopropylether, cyclohexane and methylcyclohexane can also be used as antisolvents.

Aqueous solubility = details: water, thermodynamic from solid; for solubility at 24 h: equilibration time 24 hours
[2] = pH dependent solubility tests in 0.1 M HCl, citrate buffer and USP phosphate buffers; details: thermodynamic from solid
Method: pH dependent solubility tests were conducted in 0.1 M HCl, in citrate buffer, and in USP phosphate buffers with nominal pH values of 6.8 and 7.4. Solubility tests at pH values below 5 failed because all compounds dissolved during the equilibration phase.

[3] = Dynamic vapor sorption (DVS), with PXRD and TG-FTIR of the post-DVS sample; details: for Solid form of the sample recovered post-DVS (PXRD): PXRD after DVS; for Water content of the post-DVS sample by TG-FTIR: sample recovered at end of DVS test; for Total water content change during the DVS cycles: wet sample used
Method: Dynamic vapor sorption: DVS measurements were performed with an SPS11-100n “Sorptions Prifsystem” from ProUmid (formerly “Projekt Messtechnik”), August-Nagel-Str. 23, 89079 Ulm (Germany). About 5-20 mg of sample was put into an aluminum sample pan. Humidity change rates of 5% per hour were used. The applied measurement program is visualized in the figure (blue trace). The presentations showing the effective water content are corrected.
The sample was placed on an aluminum or platinum holder on top of a microbalance and allowed to equilibrate at 50% RH before starting the pre-defined humidity programs. The measurement program is visualized in the figures of the report.
Classification of Hygroscopicity: The hygroscopicity was classified based on the mass gain at 85% RH relative to the initial mass as follows: deliquescent (sufficient water adsorbed to form a liquid), very hygroscopic (mass increase of ≥15%), hygroscopic (mass increase <15% but ≥2%), slightly hygroscopic (mass increase <2% but ≥0.2%), or non-hygroscopic (mass increase <0.2%).

[4] = Thermogravimetry coupled with FT-IR (TG-FTIR), decomposition
Method: TG-FTIR: Thermogravimetric measurements were carried out with a Netzsch Thermo-Microbalance TG 209 coupled to a Bruker FTIR Spectrometer Vector 22 (sample pans with a pinhole, N2 atmosphere, heating rate 10 K/min).

[5] = Physical form stability on drying (PXRD)
Method: PowderX-ray diffraction: Powder X-ray diffraction was carried out with a Stoe Stadi P diffractometer equipped with a Mythen1K detector operating with Cu—Kα1 radiation. The measurements with this instrument were performed in transmission at a tube voltage of 40 kV and 40 mA tube power. A curved Ge monochromator allows testing with Cu—Kα1 radiation. The following parameters were set: 0.02° 20 step size, 12 s step time, 1.5-50.5° 20 scanning range, and 1° 20 detector step (detector mode in step scan). For a typical sample preparation about 10 mg of sample was placed between two acetate foils and mounted into a Stoe transmission sample holder. The sample was rotated during the measurement. All sample preparation and measurement was done in an ambient air atmosphere.
The first crystalline form of Compound (I) was designated as Form A and was obtained from a suspension equilibration experiment of the amorphous form in an isopropanol—water mixture. Form A was characterized by PXRD, TG-FTIR, H-NMR and DVS.
The PXRD pattern of Form A is depicted in FIG. 1. It should be noted that this sample was examined by PXRD before drying and that the undried sample is highly crystalline in nature. […] A TG-FTIR of the crystal Form A sample without much drying indicated a large mass loss of 36.6% that is attributable to water and isopropanol. Given the large mass loss it was concluded that drying was insufficient, and therefore the sample was further dried under vacuum at ambient temperature for about 23 hours and a new TG-FTIR was recorded.
As with Form A, Form B was examined by PXRD before drying was indicated to be highly crystalline in nature. […] A TG-FTIR was carried out for Form B without further drying and the thermogram indicated a large mass loss of 36.5% that is attributable to water; however no alcohol was detected. Given the large mass loss it was concluded that drying was insufficient, and the sample was subjected to further vacuum drying at ambient temperature for ten minutes and a new TG-FTIR was recorded. The new TG-FTIR thermogram indicated a water content of about 4.6%.

[6] = Solubility tests in potential process solvent mixtures; details: thermodynamic from solid

- Solid form of the sample recovered post-DVS (PXRD) [3]: crystallinity was lost almost completely
- Water uptake above 50% r.h. in DVS [3]: just small amounts of water
- Water content at the end of the DVS test [3]: about 5.9%
- Water content of the post-DVS sample by TG-FTIR [3]: about 5.9%
- Total water content change during the DVS cycles [3]: about 14%
- Physical form stability [5]: poor physical form stability
Structure (SMILES): CN1CCN(C[C@H]2COc3cc4ncnc(Nc5cccc(Br)c5F)c4cc3O2)CC1 [Form C, (S)—N-(3-bromo-2-fluorophenyl)-7-((4-methylpiperazin-1-yl)methyl)-7,8-dihydro-[1,4]dioxino[2,3-g]quinazolin-4-amine]

- Solid form of the sample recovered post-DVS (PXRD) [3]: Form A was retained
- Water uptake above 50% r.h. in DVS [3]: just small amounts of water
- Water lost below 50% r.h. during the DVS cycles ([3]; below 50% r.h.): about 8%
- Water content change over the whole range of relative humidity ([3]; from 0% to 95% r.h., roughly three waters per Compound (I)): ~10%
- Physical form stability [5]: poor physical form stability
- PXRD of the dried sample ([5]; dried under vacuum at ambient temperature for about 23 hours): essentially amorphous material
- Effect of drying on crystallinity ([5]; drying of highly crystalline, solvent-rich samples): significant loss of crystallinity
Structure (SMILES): CN1CCN(C[C@H]2COc3cc4ncnc(Nc5cccc(Br)c5F)c4cc3O2)CC1 [Form A, (S)—N-(3-bromo-2-fluorophenyl)-7-((4-methylpiperazin-1-yl)methyl)-7,8-dihydro-[1,4]dioxino[2,3-g]quinazolin-4-amine]

Second part, the compound before the results:

Structure (SMILES): CN1CCN(C[C@H]2COc3cc4ncnc(Nc5cccc(Br)c5F)c4cc3O2)CC1 [Amorphous form, (S)—N-(3-bromo-2-fluorophenyl)-7-((4-methylpiperazin-1-yl)methyl)-7,8-dihydro-[1,4]dioxino[2,3-g]quinazolin-4-amine]
- solubility ([1]; 2-propanol, organic solvent or mixture, Propanol, 2-, room temperature): > 100 mg/mL
- Approximate solubility ([1]; Acetonitrile, room temperature): S > 130 mg/ml
- Approximate solubility ([1]; Ethanol/n-heptane (1/3), room temperature): S > 130 mg/ml
- Approximate solubility ([1]; Isopropyl acetate, room temperature): S~100 mg/ml
- solubility ([1]; MEK, organic solvent or mixture, room temperature): > 100 mg/mL
- solubility ([1]; TBME, organic solvent or mixture, room temperature): ~2 mg/mL (≈ 4.1 mM)
- solubility ([1]; THF, organic solvent or mixture, room temperature): > 130 mg/mL
- solubility ([1]; THF/n-heptane (1/1, v/v), organic solvent or mixture, THF/n-heptane (1/1), room temperature): ~2 mg/mL (≈ 4.1 mM)
- Approximate solubility ([1]; Water, room temperature): S < 1 mg/ml
- Solubility in the most common organic solvents (in words) ([1]; acetic acid, ketones, alcohols, esters, dichloromethane and mixtures thereof): highly soluble
- solubility ([1]; acetic acid/water (1/3, v/v), aqueous with cosolvent or surfactant or cyclodextrin, Acetic acid/water (1/3), room temperature): > 130 mg/mL
- solubility ([1]; acetone, organic solvent or mixture, room temperature): > 100 mg/mL
- solubility ([1]; acetone/water (1/1, v/v), aqueous with cosolvent or surfactant or cyclodextrin, Acetone/water (1/1), room temperature): > 120 mg/mL
- solubility ([1]; acetonitrile/water (1/1, v/v), aqueous with cosolvent or surfactant or cyclodextrin, Acetonitrile/water (1/1), room temperature): > 110 mg/mL
- solubility ([1]; anisole, organic solvent or mixture, room temperature): > 160 mg/mL
- solubility ([1]; dichloromethane, organic solvent or mixture, room temperature): > 100 mg/mL
- solubility ([1]; ethanol, organic solvent or mixture, room temperature): > 100 mg/mL
- solubility ([1]; ethanol/n-heptane (1/1, v/v), organic solvent or mixture, Ethanol/n-heptane (1/1), room temperature): > 130 mg/mL
- solubility ([1]; ethanol/water (1/1, v/v), aqueous with cosolvent or surfactant or cyclodextrin, Ethanol/water (1/1), room temperature): > 100 mg/mL
- solubility ([1]; ethyl acetate, organic solvent or mixture, room temperature): > 100 mg/mL
- solubility ([1]; methanol, organic solvent or mixture, room temperature): > 100 mg/mL
- solubility ([1]; methanol/TBME (1/2, v/v), organic solvent or mixture, Methanol/TBME (1/2), room temperature): > 140 mg/mL
- solubility ([1]; n-heptane, organic solvent or mixture, room temperature): < 1 mg/mL
- solubility at 24 h (Aqueous solubility; pH 9.27): 49 µg/mL (≈ 0.1 mM)
- solubility at 1 h (Aqueous solubility; equilibration time one hour, pH 9.16): 46 µg/mL (≈ 0.0942 mM)
- solubility ([2]; USP phosphate buffer (nominal pH 6.8), aqueous buffer, effective pH 6.95): 316 µg/mL (≈ 0.647 mM)
- solubility ([2]; USP phosphate buffer (nominal pH 7.4), pH 7.5, aqueous buffer, effective pH 7.50): 94 µg/mL (≈ 0.192 mM)
- solubility ([2]; citrate buffer, aqueous buffer, effective pH 6.25): 9630 µg/mL (≈ 19.7 mM)
- Hygroscopicity classification ([3]; DVS, classes based on mass gain at 85% RH relative to initial mass): hygroscopic (hygroscopic (mass increase <15% but ≥2%))
- Solid form of the sample recovered post-DVS (PXRD) [3]: has not changed
- Water lost during DVS ([3]; approximately same amount as during TG-FTIR): roughly 1.5%
- Water content at the end of the DVS test [3]: about 6.4%
- Water content at the high r.h. end during the DVS cycles ([3]; high r.h. end): about 15%
- Decomposition temperature [4]: above 200 °C

Structure (SMILES): CN1CCN(C[C@H]2COc3cc4ncnc(Nc5cccc(Br)c5F)c4cc3O2)CC1 [Form B, (S)—N-(3-bromo-2-fluorophenyl)-7-((4-methylpiperazin-1-yl)methyl)-7,8-dihydro-[1,4]dioxino[2,3-g]quinazolin-4-amine]
- Solid form of the sample recovered post-DVS (PXRD) [3]: crystallinity was lost
- Water uptake above 50% r.h. in DVS [3]: just small amounts of water
- Water content of the post-DVS sample by TG-FTIR [3]: about 6.4%
- Total water content change during the DVS cycles [3]: about 13%
- Physical form stability [5]: poor physical form stability
- Solid form after further drying ([5]; further drying beyond ten minutes vacuum): completely amorphous material
- PXRD of the dried sample ([5]; vacuum drying at ambient temperature for ten minutes): dramatic loss of crystallinity

Structure (SMILES): CN1CCN(C[C@H]2COc3cc4ncnc(Nc5cccc(Br)c5F)c4cc3O2)CC1 [Form D, (S)—N-(3-bromo-2-fluorophenyl)-7-((4-methylpiperazin-1-yl)methyl)-7,8-dihydro-[1,4]dioxino[2,3-g]quinazolin-4-amine]
- solubility ([1]; 1-methoxy-2-propanol, organic solvent or mixture, Propanol, 1-methoxy-2-, room temperature): > 200 mg/mL
- solubility ([1]; 2-propanol/heptane (1/1, v/v), organic solvent or mixture, Propanol, 2-/heptane 1/1, room temperature): > 20 mg/mL
- solubility ([1]; acetone/heptane (1/3, v/v), organic solvent or mixture, Acetone/heptane 1/3, room temperature): ~7 mg/mL (≈ 14.3 mM)
- solubility ([1]; ethanol/n-heptane (1/3, v/v), organic solvent or mixture, Ethanol/n-heptane (1/3), room temperature): > 107 mg/mL
- solubility ([1]; ethyl acetate/n-heptane (1/3, v/v), organic solvent or mixture, Ethyl acetate/n-heptane (1/3), room temperature): ~3 mg/mL (≈ 6.14 mM)
- Solubility compared with the amorphous form (in words) ([1]; in acetonitrile and ethyl acetate): substantially lower
- solubility ([1]; isobutyl alcohol, organic solvent or mixture, Isobutylalcohol, room temperature): > 136 mg/mL
- solubility ([1]; isopropyl acetate, organic solvent or mixture, room temperature): 90 to 180 mg/mL (≈ 184 to 369 mM)
- solubility ([1]; water, room temperature): < 1 mg/mL
- solubility ([6]; 25 °C, aqueous with cosolvent or surfactant or cyclodextrin, Isopropanol - water 1:1): 20.3 mg/mL (≈ 41.6 mM)
- solubility ([6]; 25 °C, aqueous with cosolvent or surfactant or cyclodextrin, Isopropanol - water 1:3): 1.2 mg/mL (≈ 2.46 mM)
- solubility ([6]; 25 °C, organic solvent or mixture, Ethyl acetate - heptane 1:1): 23.1 mg/mL (≈ 47.3 mM)
- solubility ([6]; ethyl acetate - heptane 1:3, 25 °C, organic solvent or mixture): 6.3 mg/mL (≈ 12.9 mM)
- solubility at 24 h (Aqueous solubility; pH 8.49): 66 µg/mL (≈ 0.135 mM)
- solubility ([2]; USP phosphate buffer (nominal pH 6.8), aqueous buffer, effective pH 6.97): 210 µg/mL (≈ 0.43 mM)
- solubility ([2]; USP phosphate buffer (nominal pH 7.4), aqueous buffer, effective pH 7.47): 84 µg/mL (≈ 0.172 mM)
- solubility ([2]; citrate buffer, aqueous buffer, effective pH 5.28): 13100 µg/mL (≈ 26.8 mM)
- solubility ([2]; citrate buffer, aqueous buffer, effective pH 6.11): 6600 µg/mL (≈ 13.5 mM)
- Water uptake in DVS ([3]; at 95% relative humidity): up to 0.8%
- Water release in DVS ([3]; humidity scanned back to 0% r.h.): lost all its water
